In patent US20240158348A1, “HERBICIDAL CYCLIC AMIDES N-SUBSTITUTED WITH A HALOALKYLSULFONYLANILIDE GROUP” (FMC Corporation, priority 2021, published 2024):

Experiments:
Type in all cases: in vivo
[1] = system: goosegrass (Eleusine indica); assay: Test C preemergence, goosegrass; conditions: 0 is no effect, 100 is complete control
How it was run: (§1)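 Corn, ragweed and goosegrass were sown in loam/sand and given a preemergence directed soil spray of compounds in a non-phytotoxic solvent with surfactant. Galium was sprayed postemergence at 2–10 cm height, one- to two-leaf stage. After 10 or 12 days in a greenhouse, injury was rated visually against untreated controls on a 0 (no effect) to 100 (complete control) scale.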

[2] = system: wheat (Triticum aestivum); assay: Test C preemergence, wheat; conditions: 0 is no effect, 100 is complete control
[3] = system: oat, wild (wild oat, Avena fatua); assay: Test C preemergence, wild oat; conditions: 0 is no effect, 100 is complete control
How it was run: (§2)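 Steps: sow in loam soil blended with sand; treat soil preemergence by directed spray, or treat young plants (2–10 cm, one to two leaves) postemergence; hold in greenhouse 10 or 12 days; rate injury visually relative to untreated controls on a 0–100 scale.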

[4] = system: pigweed, palmer (palmer amaranth, Amaranthus palmeri); assay: Test C preemergence, palmer amaranth; conditions: 0 is no effect, 100 is complete control
How it was run: as §2

[5] = system: horseweed (Erigeron canadensis); assay: Test C postemergence, horseweed; conditions: visual injury, 0 to 100 scale (0 no effect, 100 complete control)
How it was run: as §2

corn (Zea mays) = assay: Test C preemergence, corn; conditions: 0 is no effect, 100 is complete control
How it was run: as §1

[6] = system: ryegrass, Italian (Italian ryegrass, Lolium multiflorum); assay: Test C preemergence, Italian ryegrass; conditions: 0 is no effect, 100 is complete control
How it was run: as §2

[7] = system: blackgrass (Alopecurus myosuroides); assay: Test C preemergence, blackgrass; conditions: 0 is no effect, 100 is complete control
How it was run: as §2

[8] = system: galium (catchweed bedstraw, Galium aparine); assay: Test C postemergence, galium; conditions: visual injury, 0 to 100 scale (0 no effect, 100 complete control)

SMILES | Plant response rating (0 to 100 scale), Goosegrass ([1]; 31 g ai/ha Preemergence) | Plant response rating (0 to 100 scale), Goosegrass ([1]; 125 g ai/ha Preemergence) | Plant response rating (0 to 100 scale), Wheat ([2]; 31 g ai/ha Preemergence) | Plant response rating (0 to 100 scale), Wheat ([2]; 125 g ai/ha Preemergence) | Plant response rating (0 to 100 scale), Oat, Wild ([3]; 31 g ai/ha Preemergence) | Plant response rating (0 to 100 scale), Oat, Wild ([3]; 125 g ai/ha Preemergence) | Plant response rating (0 to 100 scale), Pigweed, Palmer ([4]; 31 g ai/ha Preemergence) | Plant response rating (0 to 100 scale), Pigweed, Palmer ([4]; 125 g ai/ha Preemergence) | Horseweed plant response rating ([5]; 31 g ai/ha Postemergence) | Horseweed plant response rating ([5]; 125 g ai/ha Postemergence) | Plant response rating (0 to 100 scale), Corn (corn (Zea mays); 31 g ai/ha Preemergence) | Plant response rating (0 to 100 scale), Corn (corn (Zea mays); 125 g ai/ha Preemergence) | Plant response rating (0 to 100 scale), Ryegrass, Italian ([6]; 31 g ai/ha Preemergence) | Plant response rating (0 to 100 scale), Ryegrass, Italian ([6]; 125 g ai/ha Preemergence) | Plant response rating (0 to 100 scale), Blackgrass ([7]; 31 g ai/ha Preemergence) | Plant response rating (0 to 100 scale), Blackgrass ([7]; 125 g ai/ha Preemergence) | Galium plant response rating ([8]; 31 g ai/ha Postemergence) | Galium plant response rating ([8]; 125 g ai/ha Postemergence)
CC#CCOC1CCN(c2cc(NS(=O)(=O)C(F)(F)F)c(C)cc2C)C1=O (stereo not drawn) [Compound 60] | 90 | 100 | 40 | 100 | 90 | 100 | 100 | 100 | 80 | 100 | 30 | 100 | 70 | 100 | 80 | 90 | 100 | 100
Cc1cc(C)c(N2CCC(OCc3ccccc3)C2=O)cc1NS(=O)(=O)C(F)(F)F (stereo not drawn) [Compound 61] | 100 | 100 | 30 | 100 | 50 | 90 | 100 | 100 | 60 | 60 | 20 | 100 | 60 | 90 | 60 | 90 | 70 | 90
Cc1c(NS(=O)(=O)C(F)(F)F)cc(N2CCC(OCC3CC3)C2=O)c(C)c1F (stereo not drawn) [Compound 63] | 100 | 100 | 80 | 100 | 70 | 100 | 100 | 100 | 90 | 90 | 30 | 100 | 50 | 100 | 70 | 90 | 100 | 100
